Data set [1] has as its system T lymphocyte cell line Jurkat E6-1. Briefly: Cytotoxicity experiment (CCK-8, relative cell survival). The following applies: 24 hours, untreated cells = 100%. In kind it is cell-based. The method in brief:
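Jurkat cells in RPMI-1640 with 10% FBS were exposed to compounds at several concentrations for 24 h at 37 °C, 5% CO2. CCK-8 added for 2 h, absorbance read at 450 nm; survival expressed relative to untreated cells (100%).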

In data set [2] the test system is psoriasis mouse animal model. Briefly: Psoriasis mouse animal model (imiquimod-induced). In kind it is in vivo, BALB/c mice. The conditions noted are these: 40 mg/kg intraperitoneally twice a day. The text has this: To confirm the therapeutic effect of compounds according to the present invention on psoriasis, a psoriasis animal model was established to evaluate the alleviation of skin lesions and changes in immune cell profiles by administering Compound 69 or Compound 83 via injection.
To establish a psoriasis mouse animal model, BALB/c mice (7 weeks old, 20 g, female) were purchased from Hana Biotech Co. and allowed to acclimate to the housing environment for one week. Afterward, the fur on the dorsal area of the mice was initially shaved using a shaver, followed by complete removal with depilatory cream (Nicrin Cream, comprising thioglycolic acid 80%, manufactured by ILDONG Pharmaceutical CO., LTD). The mice were then housed for 24 hours to confirm any wounds on their backs.
Subsequently, in order to verify the preventive and therapeutic effects of compounds according to the present invention on psoriasis, five experimental groups were established as shown in FIG. 7 and Table 5. From the second to the fifth group, Aldara® cream was applied once daily for two weeks (14 days, total of 14 applications) at a dose of 80 mg (imiquimod, 4 mg) per mouse to induce psoriasis. Furthermore, to compare the preventive and therapeutic effects of compounds according to the present invention (Compound 69 and Compound 83) on psoriasis, 40 mg/kg of the compound per mouse was dissolved in DMSO corresponding to 10% of the dosing volume, and then diluted in a mixture of Cremophor EL-PEG 400-distilled water to achieve a final ratio of DMSO: Cremophor EL:PEG 400:distilled water to 1:1:4:4 (v/v/v/v). Subsequently, the respective injections were intraperitoneally administered at a dose of 100 μL per mouse, twice a day with a 12-hour interval. For the Vehicle control group, injections excluding the drug but comprising the vehicle solution (DMSO: Cremophor EL:PEG 400:distilled water=1:1:4:4 (v/v/v/v)) were administered at a dose of 100 μL per mouse, twice a day with a 12-hour interval.
To assess the impact of each compound on immune cells in vivo, the spleens of mice treated with each compound were harvested, and cells were extracted, and cells were suspended in MACS buffer (2 mM EDTA, 0.5% FBS, 137 mM NaCl, 2.7 mM KCl, 10 mM Na2HPO4, 1.8 mM KH2PO4, Miltenyi Biotech.). For flow cytometry analysis, each mouse's splenocytes were aliquoted at 5×10^5 cells per FACS tube (5 mL round tube, Falcon). To prevent non-specific antibody binding, each tube was treated with 1 μg/mL of anti-mouse CD16/CD32 (InVivoMAb) for 30 minutes, followed by centrifugation at 13,000 rpm for 5 minutes, and resuspended in 100 μL of MACS buffer. Subsequent experiments were conducted depending on the type of immune cells to be examined.
For B cells, each FACS tube was stained with 1 μg/mL of FITC-conjugated anti-B220 antibody (eBioscience™) at 4° C. for 30 minutes, followed by washing with 2 mL of MACS buffer. Subsequently, each tube was centrifuged at 15,000 rpm for 5 minutes, the supernatant was removed, and the precipitated cells were fixed using 200 μL of 4% paraformaldehyde solution.
For T cells, each FACS tube was stained with 1 μg/mL of PerCP-Cy5.5-conjugated anti-CD3 antibody (Biolegend), FITC-conjugated anti-CD8 antibody (eBioscience™) and Cy7-conjugated anti-CD4 antibody (eBioscience™) at 4° C. for 30 minutes, followed by washing with 2 mL of MACS buffer. Subsequently, each tube was centrifuged at 15,000 rpm for 5 minutes, the supernatant was removed, and the precipitated cells were fixed using 200 μL of 4% paraformaldehyde solution.
For macrophages, each FACS tube was stained with 1 μg/mL of FITC-conjugated anti-CD11b antibody (eBioscience™) at 4° C. for 30 minutes, followed by washing with 2 mL of MACS buffer. Subsequently, each tube was centrifuged at 15,000 rpm for 5 minutes, the supernatant was removed, and the precipitated cells were fixed using 200 μL of 4% paraformaldehyde solution.

The mark [3] stands for this setting: flow cytometry, versus psoriasis groups, FIG. 10.

For `CCCCCCCCCCCCNC(=O)c1cccnc1N` [Compound 69], the “Relative cell survival rate (%)” value in data set [1] (10 μM) was determined as 95%; in data set [1] (20 μM) it was 94%; in data set [1] (30 μM) it was 88%; in data set [1] (50 μM), 84%. In data set [2] (14 days, FIG. 8), the “skin lesions (erythema, thickness, exfoliation of back skin)” value was “either minimally present or hardly observed”. Also, in data set [2] (14 days, FIG. 9), the “hyperkeratosis, parakeratosis, irregular acanthosis, infiltration of inflammatory cells (H&E staining)” value is “either minimally present or hardly observed”. In addition, the “proportion of B cells in the spleen” value in data set [2] (setting [3]) is “increase”. The “proportion of CD11b granulocytes in the spleen” value in data set [2] (setting [3]) is given as “decreased”. In data set [2] (setting [3]), the “proportion of T cells in the spleen” value is on record as “increase”.
